Test results published in patent US20170172944A1, “METHODS OF TREATING MELANOMA” (Mitchell Woods Pharmaceuticals, Inc., priority 2014, published 2017).

What was measured:
Type in all cases: cell-based, human
[1] = tested on: phosphorylated ERK in UACC-647 cells; assay: Phosphorylated ERK levels, UACC-647
Experimental: (§1) Levels of ERK1/2 and its phosphorylated forms were determined using PathScan ELISA kits according to manufacturer's protocol (Perkin Elmer Alphascreen Surefire ERK1/2 assay kit, cat no. TGRES500).
(§2) UACC-647, M93-047 or UACC-903 cells were serum starved for 3 hours and subjected to compound of interest or vehicle for 15 minutes.

UACC-647 cells [2] = assay: Migration and invasion towards 10% FBS (xCELLigence RTCA), UACC-647; conditions: for effect of pretreatment on anti-migratory activity of MNF (100 nM) / migratory rate: UACC-647, H-89 20 μM; for effect of pretreatment on anti-migratory activity of MNF (100 nM): ICI 118,551 50 nM; for migratory rate: MNF 100 nM, Forskolin 10 μM
Experimental: (§3) Assays were performed using xCELLigence RTCA Analyzer. Serum-starved cells were allowed to migrate or invade towards 10% FBS via bare microporous PET membrane or Matrigel-coated membrane, respectively.
(§4) Migration and Invasion Assay.
(§5) Migration and invasion of UACC-647, M93-047 and UACC-903 towards 10% FBS were monitored using xCELLigence system
(§6) Serum-starved UACC-647, M93-047 and UACC-903 cells were plated onto unmodified or Matrigel-coated CIM-Plates. The cells were treated with (R,R′)-MNF or vehicle (DMSO, 0.1%). Migration and invasion towards 10% FBS was monitored using xCELLigence RTCA station. Times of half-maximal infiltration of the cells towards serum were calculated and plotted against (R,R′)-MNF concentration.
ICI 118,551 and H-89 pretreatment blocked inhibitory activity of (R,R′)-MNF on UACC-647, while Forskolin mimicked (R,R′)-MNF. UACC-647 were serum-starved, pretreated with ICI 118,551, Forskolin, H-89 or DMSO and plated onto unmodified CIM-Plates. Migration towards 10% FBS was monitored using xCELLigence RTCA station. […] Forskolin (activator of adenylyl cyclase, 10 μM) mimicked MNF (100 nM). […] Pretreatment with H-89 blocked anti-migratory activity of MNF (100 nM).

UACC647 cells [3] = assay: [3H]-thymidine incorporation assay; conditions: serum-starved UACC647 cells, 24 hours
Experimental: [^3H]-Thymidine Incorporation Assay.
Cells were seeded in 12-well plates at approximately 50,000 cells/well and incubated at 37° C. After 24 hours, the wells were rinsed with PBS and replaced with serum-free medium containing the appropriate concentration of the test compounds. After another 24-hour incubation at 37° C., 1 μCi of [^3H]-thymidine was added to each well and incubated at 37° C. for 16 hours. [^3H]-Thymidine incorporation into DNA was monitored after the cells were washed twice with PBS and then lysed in 600 μl of 0.1 N NaOH for 30 minutes with shaking. The lysate was then mixed with 3 mL of liquid scintillation cocktail (Beckman Coulter, Inc., Brea, Calif.), and radioactivity was measured by liquid scintillation counting using Beckman Coulter LS6000IC Scintillation Counter. Data are shown as CPM incorporated compared to the control cells.
(§7) UACC-647, M93-047 and UACC-903 cells were seeded out on E-Plates and allowed to settle. Cells were stimulated with MNF. Cellular proliferation and adherence was measured every 15 minutes using xCELLigence RTCA station. Serum-starved UACC647 cells were incubated with range of (R,R′)-MNF concentrations for 24 hours and the levels of [3H]thymidine incorporation were measured.

[4] = tested on: melanoma cells (UACC-647, M93-047 and UACC-903); assay: [35S] methionine labeling, de novo protein synthesis; conditions: 10 fM, 10 pM, 10 nM for 15 minutes, then [35S]Met/Cys labeling 30 minutes
Experimental: [^35S] Methionine Labeling.
Serum starved cells were incubated in serum-free medium without methionine and cysteine and treated with (R,R′)-MNF. Then, [^35S]Met/Cys labeling was carried out. Cell lysates were resolved by SDS-polyacrylamide gel electrophoresis and transferred onto PVD membrane, and autoradiography was performed. The membrane was probed with anti-β-actin antibody to confirm equal protein loading.
Serum starved (3 hours) UACC-647, M93-047 and UACC-903 cells were washed with PBS and incubated in serum-free medium without methionine and cysteine. Then, cells were treated with (R,R′)-MNF (10 fM, 10 pM, 10 nM) or incubated with vehicle (DMSO, 0.1%) for 15 minutes followed by [35S]Met/Cys labeling for 30 minutes. Cell lysates were resolved by SDS-PAGE and transferred onto PVD membrane, and autoradio-graphy was performed. The membrane was probed with anti-β-actin antibody to confirm equal protein loading. Amounts of de novo synthesized proteins were evaluated by means of volume densitometry. Obtained values were normalized to β-actin levels.

[5] = tested on: phosphorylated ERK in M93-047 cells; assay: Phosphorylated ERK levels, M93-047; conditions: M93-047, serum starved 3 hours, 15 minutes
Experimental: as §1, §2

[6] = tested on: phosphorylated MEK in UACC-647 cells; assay: Phosphorylated MEK levels, UACC-647
Experimental: (R,R′)-MNF decreased basal phosphorylation levels of ERK and MEK. UACC-647, M93-047 or UACC-903 cells were serum starved for 3 hours and subjected to compound of interest or vehicle for 15 minutes. […] Cell pretreatment with 50 nM ICI 118,551 abolished MNF-evoked drop in phospho ERK levels in UACC647.

[7] = tested on: eukaryotic elongation factor 2 (eEF2) in UACC-647 cells; assay: eEF2 phosphorylation (Western blot), UACC-647; conditions: UACC-647, serum starved 3 hours, 1 fM to 10 μM, 15 minutes
Experimental: (§8) Cells were lysed with RIPA buffer containing EGTA and EDTA (Boston BioProducts, Ashland, Mass.). The lysis buffer was mixed with a protease inhibitor cocktail (Sigma-Aldrich). Protein concentrations were measured using the bicinchoninic acid reagent (Thermo-Pierce Biotechnology, Inc., Rockford, Ill.). Proteins (20 μg/well) were separated on 4-12% precast gels (Invitrogen, Carlsbad, Calif.) using SDS-polyacrylamide gel electrophoresis under reducing conditions and were electrophoretically transferred onto polyvinylidene fluoride membrane (Invitrogen). Western blots were performed according to standard methods. The visualization of immunoreactive bands was performed using the ECL Plus Western Blotting Detection System (GE Healthcare, NJ) and their quantification was done by volume densitometry using Image J software and normalization to β-actin. […]
(§9) UACC-647, M93-047 and UACC-903 cells were serum starved for 3 hours and subjected to concentration gradient of (R,R′)-MNF (1 fM to 10 μM) or vehicle (DMSO, 0.1%) for 15 minutes. […] Proteins of interest were detected using (phospho)specific antibodies of rabbit origin and visualized by chemiluminescence. […] Levels of total and phosphorylated form of eEF2 were quantified in (R,R′)-MNF-treated cells by means of volume densitometry.

M93-047 cells [8] = assay: Proliferation assay (xCELLigence RTCA), M93-047; conditions: M93-047, E-Plates, measured every 15 minutes
Experimental: (§10) UACC-647, M93-047 and UACC-903 cells were seeded out on E-Plates and allowed to settle. Cells were stimulated with MNF. Cellular proliferation and adherence was measured every 15 min using xCELLigence RTCA station.
as §7

M93-047 cells [9] = assay: Scratch wound healing assay, M93-047; conditions: M93-047, 100 pM to 10 μM, 24 hours
Experimental: (§11) A scratch wound was made with a cell scraper. Cells were pictured using Axiovert 200 microscope and AxioCam HRc camera. (Carl Zeiss)
(§12) UACC-647, M93-047 and UACC-903 cells were cultured until confluency. Uniform scratch wounds were made on the monolayer cultures using cell scraper and the cells were challenge with (R,R′)-MNF (100 pM to 10 μM) or vehicle (DMSO, 0.1%). Images were captured at the onset of the treatment and after 24 hours.

M93-047 cells [10] = assay: Migration and invasion towards 10% FBS (xCELLigence RTCA), M93-047
Experimental: as §3, §4, §5, §6

[11] = tested on: eukaryotic elongation factor 2 (eEF2) in M93-047 cells; assay: eEF2 phosphorylation (Western blot), M93-047; conditions: M93-047, serum starved 3 hours, 1 fM to 10 μM, 15 minutes
Experimental: as §8, §9

UACC-903 cells = assay: Proliferation assay (xCELLigence RTCA), UACC-903; conditions: UACC-903 cells (lacking EGFR)
Experimental: as §10, §7

UACC-647 cells [12] = assay: Scratch wound healing assay, UACC-647; conditions: UACC-647, 100 pM to 10 μM, 24 hours
Experimental: as §11, §12

UACC647 cells [13] = assay: Proliferation assay (xCELLigence RTCA), UACC647; conditions: UACC647, E-Plates, measured every 15 minutes
Experimental: as §10, §7

SMILES | effect of pretreatment on MNF-evoked drop in phospho ERK levels ([1]; UACC647, pretreatment 50 nM) | effect of pretreatment on anti-migratory activity of MNF (100 nM) (UACC-647 cells [2]) | migratory rate (UACC-647 cells [2]) | IC50 (UACC647 cells [3]; Homo sapiens) [nM] | inhibition of incorporation of radiolabelled thymidine (UACC647 cells [3]; range of concentrations) [%] | de novo protein synthesis [4] | nadir of U-shaped dose-response curve of phosphorylated ERK levels ([1]; UACC 647, serum starved 3 hours, 15 minutes) [nM] | nadir of U-shaped dose-response curve of phosphorylated ERK levels [5] [nM] | levels of phosphorylated MEK [6] | rapid phosphorylation of eEF2 [7] | proliferation (M93-047 cells [8]) | invasion towards 10% FBS (UACC-647 cells [2]; UACC-647, Matrigel-coated CIM-Plates) | migration towards 10% FBS (UACC-647 cells [2]; UACC-647, unmodified CIM-Plates) | motility (scratch wound) (M93-047 cells [9]) | invasion towards 10% FBS (M93-047 cells [10]; M93-047, Matrigel-coated CIM-Plates) | migration towards 10% FBS (M93-047 cells [10]; M93-047, unmodified CIM-Plates) | rapid phosphorylation of eEF2 [11] | growth (UACC-903 cells) | motility (scratch wound) (UACC-647 cells [12]) | proliferation (UACC647 cells [13])
Cc1ccc(OCC(O)C(C)NC(C)C)c2c1CCC2 (stereo not shown) [ICI 118,551, 3-(isopropylamino)-1-[(7-methyl-4-indanyl)oxy]butan-2-ol, reference compound] | abolished | completely abolished | – | – | – | – | – | – | – | – | – | – | – | – | – | – | – | – | – | –
O=S(=O)(NCCNC/C=C/c1ccc(Br)cc1)c1cccc2cnccc12 [H-89, reference compound] | – | blocked | increased migratory rate | – | – | – | – | – | – | – | – | – | – | – | – | – | – | – | – | –
COc1ccc(C[C@@H](C)NC[C@H](O)c2cc(O)cc(O)c2)c2ccccc12 [(R,R′)-MNF, (R,R′)-4′-methoxy-1-naphthylfenoterol] | – | – | decreased migratory rate | 136 | 38±3.67 | inhibit | 1 | 1 | decreased | induce rapid phosphorylation | inhibit proliferation | inhibit | inhibit migration | inhibit motility | inhibit | inhibit migration | induce rapid phosphorylation | did not inhibit | inhibit motility | inhibit proliferation
